Test results reported in US5641485A, “Caledothricins used in the treatment mycotic diseases” (Hoffmann-La Roche Inc., priority 1994, dated 1997).
In brackets after ≈: the same amount, converted by molar mass. Where two headings read alike, the source gives them in different places.

Assays:
Aspergillus fumigatus [1] = assay: microbe, parasite or virus in culture; settings: pH 7
Protocol: (§1) MIC is defined as the minimal concentration of test compound at which no visible growth is detected. Culture media employed for measuring MICs were yeast nitrogen base (Difco) supplemented with 1% of glucose, 0.2% of low melting point agarose and 0.25% of K2 HPO4 (pH 7.0). The low melting point agarose was omitted when antifungal activity against Candida albicans and Cryptococcus neoformans was measured. The culture media were inoculated with fungal cells at the final concentration of 10,000 cfu/ml. Plates were incubated for 1-12 days at 27° C.

Trichosporon beigelii = assay: In vitro antifungal activity (MIC) against Trichosporon beigelii; assay type: cell-based; settings: ATCC28592, strain ATCC 28592, pH 7.0, 27° C., 10,000 cfu/ml, 0.2% low melting point agarose
Protocol: as §1

Absidia corymbifera = assay: In vitro antifungal activity (MIC) against Absidia corymbifera; assay type: cell-based; settings: Lichtheimia corymbifera; strain IFO8084; pH 7.0, 27° C., 10,000 cfu/ml, 0.2% low melting point agarose
Protocol: as §1

Cryptococcus neoformans = assay: microbe, parasite or virus in culture
Protocol: as §1

Candida albicans = assay: microbe, parasite or virus in culture
Protocol: as §1

Aspergillus fumigatus [2] = settings: pH 7.0, 27° C., 10,000 cfu/ml, 0.2% low melting point agarose
Protocol: as §1

[3] = system: Trichophyton mentagrophytes; assay: In vitro antifungal activity (MIC) against Trichophyton mentagrophytes; assay type: cell-based; settings: strain CF1007, pH 7.0, 27° C., 10,000 cfu/ml, 0.2% low melting point agarose
Protocol: as §1

OC(Cn1cncn1)(Cn1cncn1)c1ccc(F)cc1F [FCZ, fluconazole]
MIC (Aspergillus fumigatus [1]): > 200 µg/mL | MIC (Trichosporon beigelii): 0.39 µg/mL (≈ 1.27 µM) | MIC (Absidia corymbifera): > 200 µg/mL | MIC (Cryptococcus neoformans; pH 7, strain 422, pH 7.0, 27° C., 10,000 cfu/ml): > 200 µg/mL | MIC (Cryptococcus neoformans; pH 7, strain MTU13001, pH 7.0, 27° C., 10,000 cfu/ml): 12.5 µg/mL (≈ 40.8 µM) | MIC (Candida albicans; ATCC48130, pH 7, strain ATCC48130, pH 7.0, 27° C., 10,000 cfu/ml): > 200 µg/mL | MIC (Candida albicans; pH 7, strain 652, pH 7.0, 27° C., 10,000 cfu/ml): > 200 µg/mL | MIC (Candida albicans; pH 7, strain AD, pH 7.0, 27° C., 10,000 cfu/ml): 200 µg/mL (≈ 653 µM) | MIC (Candida albicans; pH 7, strain C42, pH 7.0, 27° C., 10,000 cfu/ml): > 200 µg/mL | MIC (Candida albicans; pH 7, strain KB, pH 7.0, 27° C., 10,000 cfu/ml): > 200 µg/mL | MIC (Aspergillus fumigatus [2]; strain 437): > 200 µg/mL | MIC (Aspergillus fumigatus [2]; strain CF1004): > 200 µg/mL | MIC [3]: > 200 µg/mL
